Assay results taken from ChEMBL document CHEMBL1147026, “Synthesis of pseudopeptides based L-tryptophan as a potential antimicrobial agent” (Bioorg Med Chem Lett, 2007).
Values after ≈ are worked out from the molar mass of the structure shown.

How the values were obtained:
Escherichia coli = assay: Antimicrobial activity against Escherichia coli ATCC 25922 after 24 hrs by two fold dilution method; format: functional; details: ATCC 25922, 24 h
Staphylococcus aureus [1] = assay: Antibacterial activity against methicillin-resistant Staphylococcus aureus CMAH 0504 after 24 hrs by two fold dilution method; format: functional
Candida albicans [2] = assay: Antifungal activity against Candida albicans CMAH 0501 after 48 to 72 hrs by broth microdilution method; format: functional
Micrococcus luteus = assay: Antimicrobial activity against Micrococcus luteus CMCC(B) 28001 after 24 hrs by two fold dilution method; format: functional
Staphylococcus aureus [3] = assay: Antibacterial activity against methicillin-resistant Staphylococcus aureus CMAH 0430 after 24 hrs by two fold dilution method; format: functional
Pseudomonas aeruginosa = assay: Antimicrobial activity against Pseudomonas aeruginosa ATCC 27853 after 24 hrs by two fold dilution method; format: functional; details: ATCC 27853, 24 h
Staphylococcus aureus [4] = assay: Antibacterial activity against methicillin-susceptible Staphylococcus aureus ATCC 25923 after 24 hrs by two fold dilution method; format: functional; details: ATCC 25923, 24 h
Proteus vulgaris = assay: Antimicrobial activity against Proteus vulgaris CMCC(B) 49001 after 24 hrs by two fold dilution method; format: functional
Klebsiella aerogenes = assay: Antibacterial activity against Enterobacter aerogenes CMCC(B) 45103 after 24 hrs by two fold dilution method; format: functional
Bacillus subtilis = assay: Antimicrobial activity against Bacillus subtilis after 24 hrs by two fold dilution method; format: functional
Staphylococcus aureus [5] = assay: Antibacterial activity against methicillin-resistant Staphylococcus aureus CMAH 0515 after 24 hrs by two fold dilution method; format: functional
[6] = Toxicity in human erythrocytes assessed as haemolysis upto 4000 ug/mL; format: cell-based, Erythrocyte; details: read-out: Activity
Candida albicans [7] = assay: Antifungal activity against fluconazole-resistant Candida albicans CMAH 0520 after 48 to 72 hrs by broth microdilution method; format: functional
Aspergillus sp. = assay: Antifungal activity against Aspergillus sp. after 48 to 72 hrs by broth microdilution method; format: functional; details: Aspergillus sp.
Candida albicans [8] = assay: Antifungal activity against Candida albicans CMAM 0592 after 48 to 72 hrs by broth microdilution method; format: functional
Candida albicans [9] = assay: Antifungal activity against Candida albicans ATCC 10231 after 48 to 72 hrs by broth microdilution method; format: functional
Candida albicans [10] = assay: Antifungal activity against Candida albicans CMAH 0503 after 48 to 72 hrs by broth microdilution method; format: functional
Candida albicans [11] = assay: Antifungal activity against fluconazole-resistant Candida albicans CMAM 0597 after 48 to 72 hrs by broth microdilution method; format: functional
Candida albicans [12] = assay: Antifungal activity against Candida albicans CMAM 0594 after 48 to 72 hrs by broth microdilution method; format: functional
Candida albicans [13] = assay: Antifungal activity against Candida albicans CMAH 0511 after 48 to 72 hrs by broth microdilution method; format: functional
Rhodotorula glutinis = assay: Antimicrobial activity against Rhodotorula glutinis SYM 2209 after 48 to 72 hrs by broth microdilution method; format: functional
Cryptococcus neoformans = assay: Antifungal activity against Cryptococcus neoformans ATCC 90112 after 48 to 72 hrs by broth microdilution method; format: functional
Saccharomyces cerevisiae = assay: Antimicrobial activity against Saccharomyces cerevisiae after 48 to 72 hrs by broth microdilution method; format: functional
Candida albicans [14] = assay: Antifungal activity against Candida albicans CMAH 0572 after 48 to 72 hrs by broth microdilution method; format: functional
Candida albicans [15] = assay: Antifungal activity against Candida albicans CMAH 0527 after 48 to 72 hrs by broth microdilution method; format: functional
Candida albicans [16] = assay: Antifungal activity against Candida albicans CMAM 0577 after 48 to 72 hrs by broth microdilution method; format: functional
Candida albicans [17] = assay: Antifungal activity against Candida albicans CMAH 0507 after 48 to 72 hrs by broth microdilution method; format: functional

SMILES: CC1(C)S[C@@H]2[C@H](NC(=O)[C@H](N)c3ccccc3)C(=O)N2[C@H]1C(=O)O [AMPICILLIN]
- MBC (Escherichia coli): 64 µg/mL (≈ 183 µM)
- MIC (Escherichia coli): 32 µg/mL (≈ 91.6 µM)
- MIC (Staphylococcus aureus [1]): > 64 µg/mL
- MFC (Candida albicans [2]): 128 µg/mL (≈ 366 µM)
- MIC (Candida albicans [2]): 32 µg/mL (≈ 91.6 µM)
- MBC (Micrococcus luteus): 0.5 µg/mL (≈ 1.43 µM)
- MIC (Micrococcus luteus): 0.3 µg/mL (≈ 0.859 µM)
- MIC (Staphylococcus aureus [3]): > 64 µg/mL
- MIC (Pseudomonas aeruginosa): > 64 µg/mL
- MBC (Staphylococcus aureus [4]): 0.5 µg/mL (≈ 1.43 µM)
- MIC (Staphylococcus aureus [4]): 0.25 µg/mL (≈ 0.715 µM)
- MBC (Proteus vulgaris): 0.5 µg/mL (≈ 1.43 µM)
- MIC (Proteus vulgaris): 0.3 µg/mL (≈ 0.859 µM)
- MIC (Klebsiella aerogenes): > 64 µg/mL
- MBC (Bacillus subtilis): 0.25 µg/mL (≈ 0.715 µM)
- MIC (Bacillus subtilis): 0.3 µg/mL (≈ 0.859 µM)
- MIC (Staphylococcus aureus [5]): > 64 µg/mL

SMILES: O=C(N[C@H](CO)[C@H](O)c1ccc([N+](=O)[O-])cc1)C(Cl)Cl [CHLORAMPHENICOL]
- MBC (Escherichia coli): 4 µg/mL (≈ 12.4 µM)
- MIC (Escherichia coli): 2 µg/mL (≈ 6.19 µM)
- MBC (Staphylococcus aureus [1]): 2 µg/mL (≈ 6.19 µM)
- MIC (Staphylococcus aureus [1]): 2 µg/mL (≈ 6.19 µM)
- hemolysis [6]: 14%
- MBC (Micrococcus luteus): 4 µg/mL (≈ 12.4 µM)
- MIC (Micrococcus luteus): 2 µg/mL (≈ 6.19 µM)
- MBC (Staphylococcus aureus [3]): 2 µg/mL (≈ 6.19 µM)
- MIC (Staphylococcus aureus [3]): 1 µg/mL (≈ 3.09 µM)
- MBC (Pseudomonas aeruginosa): 64 µg/mL (≈ 198 µM)
- MIC (Pseudomonas aeruginosa): 32 µg/mL (≈ 99 µM)
- MBC (Staphylococcus aureus [4]): 1 µg/mL (≈ 3.09 µM)
- MIC (Staphylococcus aureus [4]): 1 µg/mL (≈ 3.09 µM)
- MBC (Proteus vulgaris): 0.25 µg/mL (≈ 0.774 µM)
- MIC (Proteus vulgaris): 0.25 µg/mL (≈ 0.774 µM)
- MBC (Klebsiella aerogenes): 2 µg/mL (≈ 6.19 µM)
- MIC (Klebsiella aerogenes): 2 µg/mL (≈ 6.19 µM)
- MBC (Bacillus subtilis): 2 µg/mL (≈ 6.19 µM)
- MIC (Bacillus subtilis): 2 µg/mL (≈ 6.19 µM)
- MBC (Staphylococcus aureus [5]): 4 µg/mL (≈ 12.4 µM)
- MIC (Staphylococcus aureus [5]): 2 µg/mL (≈ 6.19 µM)

SMILES: OC(Cn1cncn1)(Cn1cncn1)c1ccc(F)cc1F [FLUCONAZOLE]
- MIC (Candida albicans [7]): > 64 µg/mL
- MIC (Candida albicans [2]): 16 µg/mL (≈ 52.2 µM)
- MIC (Aspergillus sp.): > 64 µg/mL
- MIC50 (Aspergillus sp.): > 64 µg/mL
- MIC90 (Aspergillus sp.): > 64 µg/mL
- MIC (Candida albicans [8]): 32 µg/mL (≈ 104 µM)
- MIC (Candida albicans [9]): 8 µg/mL (≈ 26.1 µM)
- MIC (Candida albicans [10]): 32 µg/mL (≈ 104 µM)
- MIC (Candida albicans [11]): > 64 µg/mL
- MIC (Candida albicans [12]): 64 µg/mL (≈ 209 µM)
- MIC (Candida albicans [13]): 16 µg/mL (≈ 52.2 µM)
- MIC (Rhodotorula glutinis): > 64 µg/mL
- MIC (Cryptococcus neoformans): 16 µg/mL (≈ 52.2 µM)
- MIC (Saccharomyces cerevisiae): 4 µg/mL (≈ 13.1 µM)
- MIC (Candida albicans [14]): 64 µg/mL (≈ 209 µM)
- MIC (Candida albicans [15]): 64 µg/mL (≈ 209 µM)
- MIC (Candida albicans [16]): 64 µg/mL (≈ 209 µM)
- MIC (Candida albicans [17]): 64 µg/mL (≈ 209 µM)

SMILES: NC[C@H]1O[C@H](O[C@H]2[C@H](O)[C@@H](O[C@H]3O[C@H](CO)[C@@H](O)[C@H](N)[C@H]3O)[C@H](N)C[C@@H]2N)[C@H](O)[C@@H](O)[C@@H]1O [KANAMYCIN]
- MBC (Escherichia coli): 0.25 µg/mL (≈ 0.516 µM)
- MIC (Escherichia coli): 0.25 µg/mL (≈ 0.516 µM)
- MIC (Staphylococcus aureus [1]): > 64 µg/mL
- MBC (Micrococcus luteus): 0.25 µg/mL (≈ 0.516 µM)
- MIC (Micrococcus luteus): 0.25 µg/mL (≈ 0.516 µM)
- MIC (Staphylococcus aureus [3]): > 64 µg/mL
- MBC (Pseudomonas aeruginosa): > 128 µg/mL
- MIC (Pseudomonas aeruginosa): 64 µg/mL (≈ 132 µM)
- MBC (Staphylococcus aureus [4]): 0.5 µg/mL (≈ 1.03 µM)
- MIC (Staphylococcus aureus [4]): 0.25 µg/mL (≈ 0.516 µM)
- MBC (Proteus vulgaris): 0.5 µg/mL (≈ 1.03 µM)
- MIC (Proteus vulgaris): 0.25 µg/mL (≈ 0.516 µM)
- MBC (Klebsiella aerogenes): 0.25 µg/mL (≈ 0.516 µM)
- MIC (Klebsiella aerogenes): 0.25 µg/mL (≈ 0.516 µM)
- MBC (Bacillus subtilis): 4 µg/mL (≈ 8.26 µM)
- MIC (Bacillus subtilis): 4 µg/mL (≈ 8.26 µM)
- MIC (Staphylococcus aureus [5]): > 64 µg/mL
